From BindingDB's records for doi:10.1021/acs.jnatprod.6b01127 (Beijing University of Chinese Medicine, 2017)

target: Signal transducer and activator of transcription 3 (Homo sapiens, UniProt P40763); test: Inhibition of IL-6-Induced STAT3 activation (unknown origin) expressed in human HepG2 cells expressing pSTAT3-luciferase pre-incubated for 1 hr before IL-6 stimulation for 6 hrs by luciferase reporter gene assay
Sequence (P40763 whole entry): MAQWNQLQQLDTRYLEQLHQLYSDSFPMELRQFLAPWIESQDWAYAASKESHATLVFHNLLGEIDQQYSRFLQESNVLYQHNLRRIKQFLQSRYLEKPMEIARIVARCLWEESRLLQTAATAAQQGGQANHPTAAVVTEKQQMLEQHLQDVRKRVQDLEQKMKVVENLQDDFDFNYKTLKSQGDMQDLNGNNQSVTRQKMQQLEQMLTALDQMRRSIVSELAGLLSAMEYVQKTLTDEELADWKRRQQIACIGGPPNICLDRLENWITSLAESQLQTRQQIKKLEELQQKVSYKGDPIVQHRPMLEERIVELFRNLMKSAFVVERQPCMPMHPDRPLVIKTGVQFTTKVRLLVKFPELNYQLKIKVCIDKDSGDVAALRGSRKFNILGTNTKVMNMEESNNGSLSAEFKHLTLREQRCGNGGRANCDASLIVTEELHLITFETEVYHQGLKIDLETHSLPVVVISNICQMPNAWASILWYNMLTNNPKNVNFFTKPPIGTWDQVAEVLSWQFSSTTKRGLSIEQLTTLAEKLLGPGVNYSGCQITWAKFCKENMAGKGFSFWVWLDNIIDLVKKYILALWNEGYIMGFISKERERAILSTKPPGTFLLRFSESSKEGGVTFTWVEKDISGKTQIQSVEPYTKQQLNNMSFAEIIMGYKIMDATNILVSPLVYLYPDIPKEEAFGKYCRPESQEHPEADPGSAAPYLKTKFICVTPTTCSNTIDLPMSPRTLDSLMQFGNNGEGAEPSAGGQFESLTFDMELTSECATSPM

| SMILES | IC50 [µM] |
| --- | --- |
| CCO[C@@H]1C[C@@H]2C(C(=O)OC)=CO[C@@H](O[C@@H]3O[C@H](CO)[C@@H](O)[C@H](O)[C@H]3O)[C@@H]2[C@H](C)O1 | > 100 |
| CCO[C@H]1C[C@@H]2C(C(=O)OC)=CO[C@@H](O[C@@H]3O[C@H](CO)[C@@H](O)[C@H](O)[C@H]3O)[C@@H]2[C@H](C)O1 | 67 |
| COC(=O)C1=CO[C@@H](O[C@@H]2O[C@H](CO)[C@@H](O)[C@H](O)[C@H]2O[C@@H]2C[C@@H]3C(C(=O)OC)=CO[C@@H](O[C@@H]4O[C@H](CO)[C@@H](O)[C@H](O)[C@H]4O)[C@@H]3[C@H](C)O2)[C@@H]2[C@@H](C)[C@@H](O)C[C@H]12 | 40.5 |
| COC(=O)C1=CO[C@@H](O[C@@H]2O[C@H](CO)[C@@H](O)[C@H](O)[C@H]2O)[C@@H]2[C@H](C)O[C@@H](OC)C[C@H]12 | 24.8 |
| COC(=O)C1=CO[C@@H](O[C@@H]2O[C@H](CO[C@@H]3C[C@@H]4C(C(=O)OC)=CO[C@@H](O[C@@H]5O[C@H](CO)[C@@H](O)[C@H](O)[C@H]5O)[C@@H]4[C@H](C)O3)[C@@H](O)[C@H](O)[C@H]2O)[C@@H]2[C@@H](C)[C@@H](O)C[C@H]12 | 12.2 |
| COC(=O)C1=CO[C@@H](O[C@@H]2O[C@H](CO[C@@H]3C[C@@H]4C(C(=O)OC)=CO[C@@H](O[C@@H]5O[C@H](CO)[C@@H](O)[C@H](O)[C@H]5O)[C@@H]4[C@H](C)O3)[C@@H](O)[C@H](O)[C@H]2O)[C@@H]2[C@H](C)O[C@H](OC)C[C@H]12 | 27.6 |
| CCO[C@H]1C[C@@H]2C(C(=O)OC)=CO[C@@H](O[C@@H]3O[C@H](CO[C@H]4C[C@@H]5C(C(=O)OC)=CO[C@@H](O[C@@H]6O[C@H](CO)[C@@H](O)[C@H](O)[C@H]6O)[C@@H]5[C@H](C)O4)[C@@H](O)[C@H](O)[C@H]3O)[C@@H]2[C@H](C)O1 | > 100 |
| COC(=O)C1=CO[C@@H](O[C@@H]2O[C@H](C)[C@@H](O)[C@H](O)[C@H]2O)[C@@H]2[C@H](C)O[C@@H](O[C@H]3[C@H](O)[C@@H](O)[C@H](O[C@@H]4OC=C(C(=O)OC)[C@H]5C[C@H](OC)O[C@@H](C)[C@@H]45)O[C@@H]3CO)C[C@H]12 | 79.1 |
| COC(=O)C1=CO[C@@H](O[C@@H]2O[C@H](CO)[C@@H](O)[C@H](O)[C@H]2O)[C@@H]2[C@H](C)O[C@@H](O)C[C@H]12 [CHEBI:80852] | 6.9 |
| COC(=O)C1=CO[C@@H](O[C@@H]2O[C@H](CO)[C@@H](O)[C@H](O)[C@H]2O)[C@@H]2[C@H](C)O[C@@H](OC[C@H]3O[C@@H](O[C@@H]4OC=C(C(=O)OC)[C@H]5C[C@@H](OC)O[C@@H](C)[C@@H]45)[C@H](O)[C@@H](O)[C@@H]3O)C[C@H]12 | 47 |
| C=C[C@H]1[C@H](O[C@@H]2O[C@H](CO)[C@@H](O)[C@H](O)[C@H]2O)OC=C2C(=O)OCC[C@H]21 [CHEBI:80907] | 89.5 |
| COC(=O)C1=CO[C@@H](O[C@@H]2O[C@H](CO)[C@@H](O)[C@H](O)[C@H]2O)[C@@H]2[C@@H](C)[C@@H](O[C@H]3C[C@@H]4C(C(=O)OC)=CO[C@@H](O[C@@H]5O[C@H](CO)[C@@H](O)[C@H](O)[C@H]5O)[C@@H]4[C@@H](C)O3)C[C@H]12 | 71.9 |

Second part, the compound after the results:

| IC50 [µM] | SMILES |
| --- | --- |
| > 100 | COC(=O)C1=CO[C@@H](O[C@@H]2O[C@H](CO)[C@@H](O)[C@H](O)[C@H]2O)[C@@H]2[C@H](C)O[C@@H](O[C@H]3[C@H](O[C@@H]4OC=C(C(=O)OC)[C@H]5C[C@H](OC)O[C@@H](C)[C@@H]45)O[C@H](CO)[C@@H](O)[C@@H]3O)C[C@H]12 |
| 7 | COC(=O)C1=CO[C@@H](O[C@@H]2O[C@H](CO)[C@@H](O)[C@H](O)[C@H]2O)[C@@H]2[C@H](C)O[C@H](O)C[C@H]12 [(7Alpha-Hydroxy)-Morroniside] |
| 11.9 | COC(=O)C1=CO[C@@H](O[C@@H]2O[C@H](C)[C@@H](O)[C@H](O)[C@H]2O)[C@@H]2[C@H](C)O[C@@H](O[C@@H]3[C@@H](O)[C@H](O[C@@H]4OC=C(C(=O)OC)[C@H]5C[C@H](OC)O[C@@H](C)[C@@H]45)O[C@H](CO)[C@H]3O)C[C@H]12 |
| 32.5 | COC(=O)C1=CO[C@@H](O[C@@H]2O[C@H](CO)[C@@H](O)[C@H](O)[C@H]2O)[C@@H]2[C@H](C)O[C@H](OC)C[C@H]12 |
| > 100 | COC(=O)C1=CO[C@@H](O[C@@H]2O[C@H](CO[C@H]3C[C@@H]4C(C(=O)OC)=CO[C@@H](O[C@@H]5O[C@H](CO)[C@@H](O)[C@H](O)[C@H]5O)[C@@H]4[C@H](C)O3)[C@@H](O)[C@H](O)[C@H]2O)[C@@H]2[C@H](C)O[C@@H](OC)C[C@H]12 |
| 43 | COC(=O)C1=CO[C@@H](O[C@@H]2O[C@H](CO[C@@H]3C[C@@H]4C(C(=O)OC)=CO[C@@H](O[C@@H]5O[C@H](CO)[C@@H](O)[C@H](O)[C@H]5O)[C@@H]4[C@H](C)O3)[C@@H](O)[C@H](O)[C@H]2O)[C@@H]2[C@H](C)O[C@@H](OC)C[C@H]12 |
| 22.9 | COC(=O)C1=CO[C@@H](O[C@@H]2O[C@H](CO)[C@@H](O)[C@H](O)[C@H]2O)[C@@H]2[C@H](C)[C@@H](O)C[C@H]12 [7-Epi-Loganin] |
| 52.6 | COC(=O)C1=CO[C@@H](O[C@@H]2O[C@H](CO)[C@@H](O[C@H]3C[C@@H]4C(C(=O)OC)=CO[C@@H](O[C@@H]5O[C@H](C)[C@@H](O)[C@H](O)[C@H]5O)[C@@H]4[C@H](C)O3)[C@H](O)[C@H]2O)[C@@H]2[C@@H](C)[C@@H](O)C[C@H]12 |
| 24.8 | O=c1c(-c2ccc(O)cc2)coc2cc(O)cc(O)c12 [Prunetol] |
| 19.4 | COC(=O)C1=CO[C@@H](O[C@@H]2O[C@H](CO)[C@@H](O)[C@H](O)[C@H]2O)[C@@H]2[C@H](C)O[C@H](O[C@H]3[C@H](O[C@@H]4OC=C(C(=O)OC)[C@H]5C[C@@H](OC)O[C@@H](C)[C@@H]45)O[C@H](CO)[C@@H](O)[C@@H]3O)C[C@H]12 |
| 21.9 | COC(=O)C1=CO[C@@H](O[C@@H]2O[C@H](CO)[C@@H](O)[C@H](O)[C@H]2O)[C@@H]2[C@H](C)O[C@H](O[C@H]3[C@H](O[C@@H]4OC=C(C(=O)OC)[C@H]5C[C@H](OC)O[C@@H](C)[C@@H]45)O[C@H](CO)[C@@H](O)[C@@H]3O)C[C@H]12 |
| 29.7 | COC(=O)C1=CO[C@@H](O[C@@H]2O[C@H](C)[C@@H](O)[C@H](O)[C@H]2O)[C@@H]2[C@H](C)O[C@@H](O[C@@H]3[C@@H](O)[C@H](O[C@@H]4OC=C(C(=O)OC)[C@H]5C[C@@H](OC)O[C@@H](C)[C@@H]45)O[C@H](CO)[C@H]3O)C[C@H]12 |
| 14 | COC(=O)C1=CO[C@@H](O[C@@H]2O[C@H](CO)[C@@H](O)[C@H](O)[C@H]2O)[C@@H]2[C@@H](C)[C@@H](O)C[C@H]12 [Loganin] |
| > 100 | CCO[C@@H]1C[C@@H]2C(C(=O)OC)=CO[C@@H](O[C@@H]3O[C@H](CO[C@H]4C[C@@H]5C(C(=O)OC)=CO[C@@H](O[C@@H]6O[C@H](CO)[C@@H](O)[C@H](O)[C@H]6O)[C@@H]5[C@H](C)O4)[C@@H](O)[C@H](O)[C@H]3O)[C@@H]2[C@H](C)O1 |
